{
  "source": "patent US20200181284A1",
  "about": "“EPIGENETIC INHIBITORS FOR SENSITIZING HEMATOLOGIC OR OTHER MALIGNANCIES TO GLUCOCORTICOID THERAPY” (UNIVERSITY OF SOUTHERN CALIFORNIA, priority 2017, published 2020)",
  "key": {"G9a methylation": {"test_system": "G9a methylation", "assay": "G9a methylation level in NALM6 cells treated with KDM inhibitors", "assay_type": "cell-based, human", "text": "There are two distinct families of KDM with distinct catalytic mechanisms (FIG. 50B). We tested one inhibitor for each family: OG-L002 inhibits the two members of the LSD family of KDM, and JIB-04 inhibits several members of the large JmjC family of KDM, including members of the KDM2, KDM3, and KDM4 subfamilies. We propose that there is an equilibrium between the enzymes that methylate G9a and GLP (in this case they methylate themselves) and the KDM enzymes to maintain a moderate level of G9a/GLP methylation (FIGS. 50C-1, 50C-2), and that inhibition of the KDMs that normally demethylate G9a and GLP (currently unknown) will increase the level of G9a/GLP methylation and thereby enhance the coactivator activity of G9a/GLP, the GC activation of the cell death genes, and GC-induced cell death in B-ALL cells. Thus, as a first step to identify the G9a/GLP-specific demethylases, we treated NALM6 cells with the two inhibitors named above. OG-L002 had no effect on the level of G9a methylation, but JIB-04 increased the level of G9a methylation in NALM6 cells (FIG. 50D)."}, "[1]": {"test_system": "lung, breast and glioblastoma cancers", "details": "dosages of 5-50 mg/kg; cited from earlier work"}, "hGLP": {"target": "T1, hGLP (Homo sapiens, UniProt Q9H9B1)", "T1 construct": "expressed in transfected cells; host or cells: Cos-7", "T1 sequence (Q9H9B1 whole entry)": "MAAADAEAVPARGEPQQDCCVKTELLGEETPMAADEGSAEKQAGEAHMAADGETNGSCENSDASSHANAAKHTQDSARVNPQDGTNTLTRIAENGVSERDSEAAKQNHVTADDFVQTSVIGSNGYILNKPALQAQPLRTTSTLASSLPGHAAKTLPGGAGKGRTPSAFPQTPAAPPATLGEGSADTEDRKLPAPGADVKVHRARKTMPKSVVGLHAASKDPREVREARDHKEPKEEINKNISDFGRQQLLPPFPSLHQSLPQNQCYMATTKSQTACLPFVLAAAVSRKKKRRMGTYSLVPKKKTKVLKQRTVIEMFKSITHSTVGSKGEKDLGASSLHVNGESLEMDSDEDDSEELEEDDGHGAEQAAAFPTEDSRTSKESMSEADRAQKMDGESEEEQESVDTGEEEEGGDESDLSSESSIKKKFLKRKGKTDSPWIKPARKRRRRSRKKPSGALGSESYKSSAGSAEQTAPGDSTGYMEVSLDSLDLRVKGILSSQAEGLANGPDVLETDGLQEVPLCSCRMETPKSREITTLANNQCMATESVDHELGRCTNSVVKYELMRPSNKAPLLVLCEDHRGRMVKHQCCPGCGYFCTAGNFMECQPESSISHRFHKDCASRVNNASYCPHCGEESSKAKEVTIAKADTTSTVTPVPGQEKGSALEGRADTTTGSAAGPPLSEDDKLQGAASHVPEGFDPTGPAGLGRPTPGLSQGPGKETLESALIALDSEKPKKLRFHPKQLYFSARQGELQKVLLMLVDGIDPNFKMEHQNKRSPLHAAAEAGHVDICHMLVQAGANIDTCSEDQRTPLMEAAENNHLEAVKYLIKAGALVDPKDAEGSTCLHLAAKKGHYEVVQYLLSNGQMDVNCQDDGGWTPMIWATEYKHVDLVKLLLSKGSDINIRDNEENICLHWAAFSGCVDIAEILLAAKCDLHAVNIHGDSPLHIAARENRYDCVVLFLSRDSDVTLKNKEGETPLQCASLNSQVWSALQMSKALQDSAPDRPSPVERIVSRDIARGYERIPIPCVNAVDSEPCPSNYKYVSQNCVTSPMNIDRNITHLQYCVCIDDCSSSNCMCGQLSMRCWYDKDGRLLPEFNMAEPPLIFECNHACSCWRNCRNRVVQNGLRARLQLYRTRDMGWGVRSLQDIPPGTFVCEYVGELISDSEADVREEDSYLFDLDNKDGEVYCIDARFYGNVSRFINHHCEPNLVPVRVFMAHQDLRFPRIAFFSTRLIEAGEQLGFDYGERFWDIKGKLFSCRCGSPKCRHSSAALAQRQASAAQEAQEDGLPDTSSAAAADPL", "assay": "Methylation of HA-hGLP in Cos-7 cells (pan met-K immunoprecipitation/immunoblot)", "assay_type": "cell-based, African green monkey", "details": "2 μM, 24 h", "procedure": "Cos-7 or A549 cells were seeded on 10-cm dishes the day before transfection. Cells were transiently transfected (where indicated) using Lipofectamine 2000 (Invitrogen) with 5 μg each of the indicated plasmids according to the manufacturer's protocol. […] Protein extracts were incubated with 1 μg of the indicated primary antibodies overnight at 4° C. with shaking. Protein A/G Plus Agarose (Santa Cruz sc-2003) beads were added and the mixture was incubated 2 hr at 4° C. The immunoprecipitates were separated on SDS-PAGE. […] In immunoprecipitation experiments 3% of the input of each sample was analyzed by immunoblot using the antibodies listed. […]"}, "endogenous G9a and GLP": {"target": "T2, endogenous G9a and GLP (Homo sapiens, UniProt Q96KQ7+Q9H9B1)", "T2 construct": "highlight methylation of endogenous G9a and GLP in A549 cells; endogenous in cells; host or cells: A549", "assay": "Methylation of endogenous G9a and GLP in A549 cells", "assay_type": "cell-based", "details": "2 μM, 24 h", "procedure": "(§1) Cos-7 or A549 cells were seeded on 10-cm dishes the day before transfection. Cells were transiently transfected (where indicated) using Lipofectamine 2000 (Invitrogen) with 5 μg each of the indicated plasmids according to the manufacturer's protocol. At 48 h after transfection, cells were treated (or not) with dex for the indicated time period, and cell extracts were prepared in RIPA buffer (50 mM Tris-HCl, pH 8, 150 mM NaCl, 1 mM EDTA, 1% NP-40 and 0.25% deoxycholate) supplemented with protease inhibitor tablets (Roche Molecular Biochemicals) and phosphatase inhibitors (1 mM NaF, 1 mM Na3VO4 and 1 mM β-glycerophosphate). Protein extracts were incubated with 1 μg of the indicated primary antibodies overnight at 4° C. with shaking. Protein A/G Plus Agarose (Santa Cruz sc-2003) beads were added and the mixture was incubated 2 hr at 4° C. The immunoprecipitates were separated on SDS-PAGE. […] In immunoprecipitation experiments 3% of the input of each sample was analyzed by immunoblot using the antibodies listed.\nThe results as shown in FIGS. 24E-1 and 24E-2 highlight methylation of endogenous G9a and GLP in A549 cells. […] Western-Blot quantification was determined relative to input using ChemiDoc MP (Biorad) to measure chemiluminescence from the immunoblots, and the ratio of the IP signal to the input signal was calculated for each sample."}, "[2]": {"test_system": "phosphorylation of GR or HP1γ", "assay": "Immunoblot of GR and HP1γ phosphorylation in A549 cells", "assay_type": "cell-based, human", "details": "2 μM, 24 h", "procedure": "as §1\n102371 Aurora kinase B inhibition has no effect of phosphorylation of GR or HP1γ as highlighted in the results as shown in FIG. 27E. […] Whole-cell extracts were analyzed with the listed antibodies by immunoblot."}},
  "data": [
    {"smiles": "Clc1ccc(N/N=C(\\c2ccccc2)c2ccccn2)nc1", "note": "[JIB-04, 5-chloro-N-[(E)-[phenyl(pyridin-2-yl)methylidene]amino]pyridin-2-amine]", "values": [
      {"measurement": "level of G9a methylation", "setting": "G9a methylation", "result": "increased"},
      {"measurement": "efficacy in mouse xenograft models", "setting": "[1]", "result": "effective"}
    ]},
    {"smiles": "COc1cc2c(NC3CCN(C4CCCCC4)CC3)nc(N3CCCN(C(C)C)CC3)nc2cc1OCCCN1CCCCC1", "note": "[UNC0646]", "values": [
      {"measurement": "GLP methylation in cells", "setting": "hGLP", "result": "reduced"},
      {"measurement": "endogenous level of G9a and GLP", "setting": "endogenous G9a and GLP", "result": "increased"},
      {"measurement": "proportion of G9a and GLP that was methylated", "setting": "endogenous G9a and GLP", "result": "decreased substantially"}
    ]},
    {"smiles": "COc1cc2c(Nc3ccc(NC(=O)c4ccccc4)cc3)ncnc2cc1OCCCN1CCOCC1", "note": "[ZM447439, N-[4-[[6-methoxy-7-(3-morpholin-4-ylpropoxy)quinazolin-4-yl]amino]phenyl]benzamide]", "values": [
      {"measurement": "phosphorylation of GR or HP1γ", "setting": "[2]", "result": "no effect"}
    ]}
  ]
}
